The results in this text go back to patent US20040214237A1, “DNA encoding SNORF138 and uses thereof” (Synaptic Pharmaceutical Corporation, priority 2002, published 2004).

The target of assay [1] is T1, hSN138 (human SNORF138 receptor) (Homo sapiens, UniProt Q8TDU6).
T1 construct: expressed in transfected cells; host or cells: Xenopus laevis oocytes (cytoplasmic injection of T3-driven cDNA with T3 RNA polymerase)
T1 sequence (Q8TDU6 1-330): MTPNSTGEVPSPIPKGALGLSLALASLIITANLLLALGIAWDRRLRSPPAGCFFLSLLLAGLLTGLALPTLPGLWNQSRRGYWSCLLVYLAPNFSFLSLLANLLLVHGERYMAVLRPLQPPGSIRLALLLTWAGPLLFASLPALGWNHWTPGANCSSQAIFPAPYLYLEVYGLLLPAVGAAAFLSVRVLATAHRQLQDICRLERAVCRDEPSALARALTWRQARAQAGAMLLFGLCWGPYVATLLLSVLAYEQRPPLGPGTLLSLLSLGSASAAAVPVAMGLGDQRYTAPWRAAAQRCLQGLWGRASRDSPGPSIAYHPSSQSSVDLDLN
As to the kind of experiment: Activation of CFTR currents in Xenopus oocytes expressing both hSN138 and CFTR (dual electrode voltage clamp). The note with it: betamethasone valerate, bullet application, holding potential -80 mV, n=8. Also noted: dose or concentration left out as unconfirmed. It counts as cell-based.
Method: Oocytes were injected with a cocktail of T3-driven hSN138 cDNA, T3-RNA polymerase and dNTP with or without T3-driven CFTR cDNA directly into the cytoplasm as previously described (Geib et al., 2001). After 2 days of incubation at 15° C., dual electrode voltage clamp was performed using 3 M KCl-filled glass microelectrodes with resistances of 1-2 MΩ. Unless otherwise specified, oocytes were voltage-clamped at a holding potential of −80 mV. During recordings, oocytes were bathed in continuously flowing (1-3 ml/min) medium containing 96 mM NaCl, 2 mM KCl, 1.8 mM CaCl2, and 5 mM HEPES, pH 7.5 (ND96 Buffer). Drugs were applied by local perfusion from a 10 ml glass capillary tube at a distance of 0.5 mm from the oocyte. […] CFTR channel activity is heavily regulated by the cytosolic levels of cyclic AMP which can be increased by activation of GS-coupled adenylyl cyclase (AC). Therefore, activation of GS-coupled AC pathway is assayed by applying test compound in ND96 solution to oocytes and observing the changes of inward CFTR currents at a holding potential of −80 mV.

The test system of a further assay is CFTR. Description: CFTR currents in Xenopus oocytes expressing CFTR alone (control without receptor). It counts as cell-based. Also noted: dose or concentration left out as unconfirmed. The note with it: betamethasone valerate, bullet application, n=4. On the procedure:
In the present invention, oocytes are harvested from Xenopus laevis as previously described (Quick and Lester, 1994; Smith et al., 1997). Oocytes were injected with a cocktail of T3-driven hSN138 cDNA, T3-RNA polymerase and dNTP with or without T3-driven CFTR cDNA directly into the cytoplasm as previously described (Geib et al., 2001). After 2 days of incubation at 15° C., dual electrode voltage clamp was performed using 3 M KCl-filled glass microelectrodes with resistances of 1-2 MΩ. Unless otherwise specified, oocytes were voltage-clamped at a holding potential of −80 mV. During recordings, oocytes were bathed in continuously flowing (1-3 ml/min) medium containing 96 mM NaCl, 2 mM KCl, 1.8 mM CaCl2, and 5 mM HEPES, pH 7.5 (ND96 Buffer). Drugs were applied by local perfusion from a […] glass capillary tube at a distance of 0.5 mm from the oocyte. Heterologous expression of GPCRs in Xenopus oocytes has been widely used to determine the identity of signaling pathways activated by agonist stimulation. CFTR channel activity is heavily regulated by the cytosolic levels of cyclic AMP which can be increased by activation of GS-coupled adenylyl cyclase (AC). Therefore, activation of GS-coupled AC pathway is assayed by applying test compound in ND96 solution to oocytes and observing the changes of inward CFTR currents at a holding potential of −80 mV.

As to `CCCCC(=O)O[C@]1(C(=O)CO)[C@@H](C)C[C@H]2[C@@H]3CCC4=CC(=O)C=C[C@]4(C)[C@@]3(F)[C@@H](O)C[C@@]21C` [betamethasone valerate, fluoro-11b,17,21-trihydroxy-16b-methylpregna-1,4-diene-3,20-dione 17-valerate], in assay [1], the “increase of CFTR currents” value is reported as 9.2±1.9 nA. Also, in the assay on CFTR, the “changes in CFTR currents” value is “no significant changes”.
